From patent US6673902B2, “Cyclin D binding factor, and uses thereof” (St. Jude Children's Research Hospital, priority 1996, dated 2004)

Columns and labels:
[1] = tested on: DMP1-responsive promoter (pGL2BS2); assay: Transactivation of luciferase reporter plasmid under control of a DMP1-responsive promoter in NIH-3T3 fibroblasts; format: cell-based, mouse; conditions: vector without insert set to 1.0
Source text: Coexpression of a D-type cyclin with DMP1 overrides the ability of DMP1 to transactivate a luciferase gene under the control of an artificial DMP1-responsive promoter (Table 4), as well as the ability of DMP1 to inhibit cell growth.

[2] = tested on: 32P-BS2 Probe; assay: EMSA with 32P-BS2 probe on transfection lysates of NIH-3T3 fibroblasts; format: binding; conditions: EMSA, 32P-BS2 probe, lysates of transfected NIH-3T3 fibroblasts
Description: Double-stranded oligonucleotides containing potential DMP1 binding sites (BS1 and BS2) and mutated versions (M1-M4) (FIG. 5B) are end-labeled with ^32P using the Klenow fragment of DNA polymerase and α-^32P-dATP (6000 Ci/mmol; Dupont NEN) (8). Nuclear extracts from mouse NIH-3T3 or CTLL cells are prepared with buffer containing 0.4 M NaCl (2). Mammalian cell extracts (15 μg protein) or Sf9 lysates (corresponding to 5×10^2 infected cells) containing ˜4 ng recombinant DMP1 are mixed with 3 ng of ^32P-labeled probe (1×10^5 cpm) in 15 ul Binding buffer containing 2.5 μg of poly(dI-dC) and 2.5 μg BSA and incubated at 4° C. for 30 minutes. For competition experiments, the indicated amounts of unlabeled oligonucleotides are added to the reactions before addition of the labeled probe. In some experiments, a bacterially produced GST-Ets2 fusion protein containing the complete Ets2 DNA-binding domain (10) is used in place of Sf9 extracts containing recombinant DMP1. Protein-DNA complexes are separated on nondenaturing 4% polyacrylamide gels as described (8). Where indicated, antiserum to DMP1 together with 2.5 μg salmon testis DNA (Sigma; used to reduce nonspecific DNA binding activity caused by serum addition) is preincubated with extracts for 30 minutes at 4° C. prior to initiation of binding reactions. Immune complexes are either removed by adsorption to protein A-Sepharose beads (immunodepletion experiments) or are allowed to remain (“supershift” experiments).
A series of deletion mutants and a point mutant of DMP1, K319E, (in which the lysine at position 319 of SEQ ID NO:1 is replaced by a glutamic acid) were prepared and used to determine the DNA-binding domain of DMP1 by electrophoretic mobility shift assay (EMSA) using a ^32P labeled BS2 probe. The DNA-binding domain of DMP1 was mapped to a central region containing the three MYB repeats plus adjacent flanking sequences: a BstEII to NcoI fragment encoding amino acids 87-458 of SEQ ID NO:1 (Table 1). This region alone was necessary and sufficient for DNA binding.

[3] = tested on: NIH-3T3 fibroblasts; assay: BrdU incorporation in transfected NIH-3T3 fibroblasts; format: cell-based, mouse; conditions: for % Cells BrdU Positive: Table 2, expression vector 3 μg/10 ml; for % Cells BrdU Positive in 10% FCS: nonstarved cells; for % Cells BrdU Positive in 0.1% FCS: starved cells
Description: BrdU is added to NIH-3T3 cells after the experimental treatment and the cells were incubated for twenty-two hours in DMEM plus 10% fetal calf serum (FCS). The cells were then stained for DMP1 expression and/or BrdU incorporation. The nucleic acids encoding the wildtype DMP1 and the deletion and point mutants had been constructed so as to express the corresponding proteins with Flag-tags. To stain for DMP1 expression, mouse monoclonal anti-Flag antibodies (12 μg/ml) [Kodak] were incubated with the cells in TBS-Ca^+ without FCS for one hour at room temperature. After washing the cells, horse anti-mouse biotinylated antibodies at a 1:500 dilution were added to the cells in TBS plus 5% FCS and incubated for 30 minutes at room temperature. After washing the cells, strefptavidin linked to Texas red [Amersham] was then added at a 1:500 dilution for 30 minutes at room temperature. To stain for BrdU incorporation, 1.5N HCl was added to the cells for ten minutes at room temperature to denature the DNA. After washing the cells, sheep anti-BrdU antibodies [Fitzgerald] at a 1:12 dilution were then added for one hour at room temperature. After washing the cells, rabbit FITC-conjugated anti-sheep antibodies [Vector] at 1:100 dilution was then incubated for 30 minutes at room temperature.
NIH-3T3 cells were placed on cover slides and transfected with the expression vectors (pFLEX-DMP1 or the corresponding vector containing the deletion or point mutants of mouse DMP1 plus or minus cyclin D or E) for fourteen hours. The cells were then washed twice and DMEM plus 10% FCS was added and the cells incubated for eight hours. Half of the cells were starved by washing twice with 0.1% FCS, and then incubated for twenty-four hours in 0.1% FCS in DMEM. The remaining cells were not starved but were incubated for twenty-four hours in DMEM plus 10% FCS without washing. BrdU was added to both groups of cells and the cells were incubated for twenty-two hours in DMEM plus 10% FCS.
The cells were then restimulated to enter the cell cycle synchronously with DMEM plus 10% FCS. At the same time, 5′-Bromo-2′ Deoxyuridine (BrdU) was added to the medium. The cells were fixed 22 hours later in methanol acetone (1:1) and stained for BrdU incorporation and DMP1 expression as described in the Materials and Methods.

[4] = expression vector 3 μg/10 ml, pGL2BS2 8 μg/10 ml
[5] = additive None, labeled 22 hours

Row | Substance | Luciferase Activity ([1]; Table 4, DMP1 coexpressed with the additive named as label (DMP1 row: no additive)) | Luciferase Activity [1, 4] | 32P-labeled Band [2] | % Cells BrdU Positive [3] [%] | % Cells BrdU Positive in 10% FCS [3, 5] [%] | % Cells BrdU Positive in 10% FCS ([3]; additive cyclin D2) [%] | % Cells BrdU Positive in 10% FCS ([3]; additive cyclin E) [%] | % Cells BrdU Positive in 0.1% FCS [3, 5] [%] | % Cells BrdU Positive in 0.1% FCS ([3]; additive cyclin D2) [%] | % Cells BrdU Positive in 0.1% FCS ([3]; additive cyclin E) [%]
1 | DMP1: murine cyclin D-associated myb-like transcription factor, 761 amino acids, SEQ ID NO:1 | 8.4 | 8.4 | Yes | 12 | 30 | 80 | 82 | 15 | 57 | 56
2 | M3: DMP1 deletion mutant (NcoI), amino acids 1-458 of SEQ ID NO:1 |  | 2.3 | Yes | 24 |  |  |  |  |  | 
